From US20150025080A1, “SOLID DISPERSIONS OF SITAGLIPTIN AND PROCESSES FOR THEIR PREPARATION” (RANBAXY LABORATORIES LIMITED, priority 2011, published 2015)

Experiment: Storage stability in humidity chamber at 50% RH and 25° C., evaluated by XRPD
Format: physicochemical
Details: about 50% relative humidity
Protocol: The X-ray powder diffractograms (XRPD) of the samples were determined by using Instrument: PANalytical; Mode: Expert PRO; Detector: Xcelerator; ScanRange: 3-40; Step size: 0.02; Range: 3-40° 2 theta; CuKα radiation at 45 kV.
0.52 g of the product obtained as per Example 2 was stored in double sealed polybags in a humidity chamber maintained at 50% RH and 25° C. for 4 days to evaluate the stability. The XRPD pattern of the compound stored at 50% RH and 25° C. for 4 days is depicted in FIG. 10.
0.54 g of the product obtained as per Example 2 was stored in double sealed polybags in a humidity chamber maintained at 50% RH and 25° C. for 10 days to evaluate the stability. The XRPD pattern of the compound stored at 50% RH and 25° C. for 10 days is depicted in FIG. 11.
0.54 g of the product obtained as per Example 5 was stored in double-sealed polybags in a humidity chamber maintained at 50% RH and 25° C. for 4 days to evaluate the stability. The XRPD pattern of the product stored at 50% RH and 25° C. for 4 days is depicted in FIG. 13.
0.53 g of the product obtained as per Example 5 was stored in double-sealed polybags in a humidity chamber maintained at 50% RH and 25° C. for 10 days to evaluate the stability. The XRPD pattern of the product stored at 50% RH and 25° C. for 10 days is depicted in FIG. 14. […]

Question: Which “time period in which the amorphous form tends to undergo crystallization” value does the source give for `N[C@@H](CC(=O)N1CCn2c(nnc2C(F)(F)F)C1)Cc1cc(F)c(F)cc1F` [sitagliptin dihydrogen phosphate] here?
Answer: Its value is “about 4 days”.
